Columns and labels:
[1] = test system: Beet Armyworm (Spodoptera exigua, LAPHEG); assay: Bioassays on Beet Armyworm (BAW), 128-well diet tray assay; assay type: in vivo; conditions: Spodoptera exigua; Table ABC: Biological Results; species BAW; read-out: BAW
Method: (§1) Certain molecules disclosed in this document were tested against BAW and CL using procedures described in the following examples. In the reporting of the results, the “BAW & CL Rating Table” was used (See Table Section).
Bioassays on BAW were conducted using a 128-well diet tray assay. One to five second instar BAW larvae were placed in each well (3 mL) of the diet tray that had been previously filled with 1 mL of artificial diet to which 50 μg/cm^2 of the test molecule (dissolved in 50 μL of 90:10 acetone-water mixture) had been applied (to each of eight wells) and then allowed to dry. Trays were covered with a clear self-adhesive cover, vented to allow gas exchange, and held at 25° C., 14:10 light-dark for five to seven days. Percent mortality was recorded for the larvae in each well; activity in the eight wells was then averaged. The results are indicated in the table entitled “Table ABC: Biological Results” (See Table Section).

[2] = test system: Cabbage Looper (Trichoplusia ni, TRIPNI); assay: Bioassays on Cabbage Looper (CL), 128-well diet tray assay; assay type: in vivo; conditions: Trichoplusia ni; Table ABC: Biological Results; species CL; read-out: CL
Method: as §1
Bioassays on CL were conducted using a 128-well diet tray assay. One to five second instar CL larvae were placed in each well (3 mL) of the diet tray that had been previously filled with 1 mL of artificial diet to which 50 μg/cm^2 of the test molecule (dissolved in 50 μL of 90:10 acetone-water mixture) had been applied (to each of eight wells) and then allowed to dry. Trays were covered with a clear self-adhesive cover, vented to allow gas exchange, and held at 25° C., 14:10 light-dark for five to seven days. Percent mortality was recorded for the larvae in each well; activity in the eight wells was then averaged. The results are indicated in the table entitled “Table ABC: Biological Results” (See Table Section).

In the case of CC(C)(C)OC(=O)Nc1c(F)ccc(NC(=O)c2cc(NC(=O)[C@H]3[C@H](c4cc(Br)cc(C(F)(F)F)c4)C3(Cl)Cl)ccc2Cl)c1F (relative stereo) [F1073, trans-tert-Butyl-(3-(5-(3-(3-bromo-5-(trifluoromethyl)phenyl)-2,2-dichlorocyclopropane-1-carboxamido)-2-chlorobenzamido)-2,6-difluorophenyl)carbamate], the pest or weed control at 50 µg/cm2 [1] is reported as 50 to 100% and the pest or weed control at 50 µg/cm2 [2] is reported as 50 to 100%.
In the case of Nc1c(F)ccc(NC(=O)c2cc(NC(=O)[C@H]3[C@H](c4cc(Cl)cc(Cl)c4)C3(F)F)ccc2Cl)c1F (relative stereo) [F1080, trans-N-(3-Amino-2,4-difluorophenyl)-2-chloro-5-(3-(3,5-dichlorophenyl)-2,2-difluorocyclopropane-1-carboxamido)benzamide], the pest or weed control at 50 µg/cm2 [1] is reported as 50 to 100% and the pest or weed control at 50 µg/cm2 [2] is reported as 50 to 100%.
With O=C(Nc1ccc(F)cc1F)c1c(F)ccc(NC(=O)[C@H]2[C@H](c3ccc(F)c(Cl)c3)C2(Cl)Cl)c1F (relative stereo) [F1086, trans-3-(2,2-Dichloro-3-(3-chloro-4-fluorophenyl)cyclopropane-1-carboxamido)-N-(2,4-difluorophenyl)-2,6-difluorobenzamide] the pest or weed control at 50 µg/cm2 [1] was 50 to 100% and the pest or weed control at 50 µg/cm2 [2] was 50 to 100%.
CC(C)(C)OC(=O)Nc1c(F)ccc(NC(=O)c2cc(NC(=O)[C@H]3[C@H](c4cc(F)cc(C(F)(F)F)c4)C3(Cl)Cl)ccc2Cl)c1F (relative stereo) [F1092, trans-tert-Butyl-(3-(2-chloro-5-(2,2-dichloro-3-(3-fluoro-5-(trifluoromethyl)phenyl)cyclopropane-1-carboxamido)benzamido)-2,6-difluorophenyl)carbamate] gave a pest or weed control at 50 µg/cm2 [1] of 50 to 100% and a pest or weed control at 50 µg/cm2 [2] of 50 to 100%.
Molecule O=C(Nc1ccc(F)cc1F)c1cc(NC(=O)[C@H]2[C@H](c3cc(F)cc(Br)c3F)C2(Cl)Cl)ccc1Cl (relative stereo) [F1093, trans-5-(3-(3-bromo-2,5-difluorophenyl)-2,2-dichlorocyclopropane-1-carboxamido)-2-chloro-N-(2,4-difluorophenyl)benzamide] has a pest or weed control at 50 µg/cm2 [1] of 50 to 100% and a pest or weed control at 50 µg/cm2 [2] of 50 to 100%.
CC(C)(C)OC(=O)Nc1c(F)ccc(NC(=O)c2cc(NC(=O)[C@H]3[C@H](c4cc(F)cc(Br)c4F)C3(Cl)Cl)ccc2Cl)c1F (relative stereo) [F1095, trans-tert-Butyl-(3-(5-(3-(3-bromo-2,5-difluorophenyl)-2,2-dichlorocyclopropane-1-carboxamido)-2-chlorobenzamido)-2,6-difluorophenyl)carbamate] gave a pest or weed control at 50 µg/cm2 [1] of 50 to 100% and a pest or weed control at 50 µg/cm2 [2] of 50 to 100%.
Nc1c(F)ccc(NC(=O)c2cc(NC(=O)[C@H]3[C@H](c4cc(F)cc(Br)c4F)C3(Cl)Cl)ccc2Cl)c1F (relative stereo) [F1098, trans-N-(3-Amino-2,4-difluorophenyl)-5-(3-(3-bromo-2,5-difluorophenyl)-2,2-dichlorocyclopropane-1-carboxamido)-2-chlorobenzamide] was tested, and the pest or weed control at 50 µg/cm2 [1] was 50 to 100% and the pest or weed control at 50 µg/cm2 [2] was 50 to 100%.
With CC(=O)Nc1ccc(NC(=O)c2c(F)ccc(NC(=O)[C@H]3[C@H](c4ccc(F)c(Cl)c4)C3(Cl)Cl)c2F)cc1 (relative stereo) [F1101, trans-N-(4-Acetamidophenyl)-3-(2,2-dichloro-3-(3-chloro-4-fluorophenyl)cyclopropane-1-carboxamido)-2,6-difluorobenzamide] the pest or weed control at 50 µg/cm2 [1] was 50 to 100% and the pest or weed control at 50 µg/cm2 [2] was 50 to 100%.
Work on CC(=O)Nc1ccc(NC(=O)c2c(Cl)ccc(NC(=O)[C@H]3[C@H](c4ccc(F)c(Cl)c4)C3(Cl)Cl)c2Cl)cc1 (relative stereo) [F1102, trans-N-(4-Acetamidophenyl)-2,6-dichloro-3-(2,2-dichloro-3-(3-chloro-4-fluorophenyl)cyclopropane-1-carboxamido)benzamide] yielded a pest or weed control at 50 µg/cm2 [1] of 50 to 100% and a pest or weed control at 50 µg/cm2 [2] of 50 to 100%.
CN(C(=O)c1c(Cl)ccc(NC(=O)[C@H]2[C@H](c3ccc(F)c(Cl)c3)C2(Cl)Cl)c1Cl)c1ccc(N)cc1 (relative stereo) [F1106, trans-N-(4-Aminophenyl)-2,6-dichloro-3-(2,2-dichloro-3-(3-chloro-4-fluorophenyl)cyclopropane-1-carboxamido)-N-methylbenzamide] gave a pest or weed control at 50 µg/cm2 [1] of 50 to 100% and a pest or weed control at 50 µg/cm2 [2] of 0 to 50%.
For CC(C)(C)OC(=O)N(C(=O)OC(C)(C)C)c1c(F)ccc(NC(=O)c2c(F)ccc(NC(=O)[C@H]3[C@H](c4ccc(F)c(Cl)c4)C3(Cl)Cl)c2F)c1F (relative stereo) [F1109, trans-tert-Butyl-N-tert-butoxycarbonyl-N-[3-[[3-[[2,2-dichloro-3-(3-chloro-4-fluorophenyl)cyclopropanecarbonyl]amino]-2,6-difluorobenzoyl]amino]-2,6-difluorophenyl]carbamate], the pest or weed control at 50 µg/cm2 [1] was 50 to 100% and the pest or weed control at 50 µg/cm2 [2] was 50 to 100%.
Molecule Nc1c(F)ccc(NC(=O)c2c(Cl)ccc(NC(=O)[C@H]3[C@H](c4ccc(F)c(Cl)c4)C3(Cl)Cl)c2Cl)c1F (relative stereo) [F1110, trans-N-(3-Amino-2,4-difluorophenyl)-2,6-dichloro-3-(2,2-dichloro-3-(3-chloro-4-fluorophenyl)cyclopropane-1-carboxamido)benzamide] has a pest or weed control at 50 µg/cm2 [1] of 50 to 100% and a pest or weed control at 50 µg/cm2 [2] of 50 to 100%.
Nc1c(F)ccc(NC(=O)c2c(F)ccc(NC(=O)[C@H]3[C@H](c4ccc(F)c(Cl)c4)C3(Cl)Cl)c2F)c1F (relative stereo) [F1111, trans-N-(3-Amino-2,4-difluorophenyl)-3-(2,2-dichloro-3-(3-chloro-4-fluorophenyl)cyclopropane-1-carboxamido)-2,6-difluorobenzamide] was tested, and the pest or weed control at 50 µg/cm2 [1] was 50 to 100% and the pest or weed control at 50 µg/cm2 [2] was 50 to 100%.
Molecule CC(C)(C)OC(=O)Nc1c(F)ccc(NC(=O)c2cc(NC(=O)[C@H]3[C@H](c4ccc(Br)c(C(F)(F)F)c4)C3(Cl)Cl)ccc2Cl)c1F (relative stereo) [F1115, trans-tert-Butyl-(3-(5-(3-(4-bromo-3-(trifluoromethyl)phenyl)-2,2-dichlorocyclopropane-1-carboxamido)-2-chlorobenzamido)-2,6-difluorophenyl)carbamate] has a pest or weed control at 50 µg/cm2 [1] of 50 to 100% and a pest or weed control at 50 µg/cm2 [2] of 50 to 100%.
In the case of O=C(Nc1cc(F)c(NC(=O)C(F)(F)F)c(F)c1)c1cc(NC(=O)[C@H]2[C@H](c3ccc(Cl)c(Cl)c3)C2(Cl)Cl)ccc1Cl (relative stereo) [F1120, trans-2-Chloro-5-(2,2-dichloro-3-(3,4-dichlorophenyl)cyclopropane-1-carboxamido)-N-(3,5-difluoro-4-(2,2,2-trifluoroacetamido)phenyl)benzamide], the pest or weed control at 50 µg/cm2 [1] is reported as 50 to 100% and the pest or weed control at 50 µg/cm2 [2] is reported as 50 to 100%.
O=C(Nc1ccc(F)cc1NC(=O)C(F)(F)F)c1cc(NC(=O)[C@H]2[C@H](c3ccc(Cl)c(Cl)c3)C2(Cl)Cl)ccc1Cl (relative stereo) [F1121, trans-2-Chloro-5-(2,2-dichloro-3-(3,4-dichlorophenyl)cyclopropane-1-carboxamido)-N-(4-fluoro-2-(2,2,2-trifluoroacetamido)phenyl)benzamide] was tested, and the pest or weed control at 50 µg/cm2 [1] was 50 to 100% and the pest or weed control at 50 µg/cm2 [2] was 50 to 100%.
With O=C(Nc1cc(F)c(NC(=O)C(F)F)c(F)c1)c1cc(NC(=O)[C@H]2[C@H](c3ccc(Cl)c(Cl)c3)C2(Cl)Cl)ccc1Cl (relative stereo) [F1122, trans-2-Chloro-5-(2,2-dichloro-3-(3,4-dichlorophenyl)cyclopropane-1-carboxamido)-N-(4-(2,2-difluoroacetamido)-3,5-difluorophenyl)benzamide] the pest or weed control at 50 µg/cm2 [1] was 50 to 100% and the pest or weed control at 50 µg/cm2 [2] was 50 to 100%.
Work on O=C(Nc1ccc(F)cc1NC(=O)C(F)F)c1cc(NC(=O)[C@H]2[C@H](c3ccc(Cl)c(Cl)c3)C2(Cl)Cl)ccc1Cl (relative stereo) [F1123, trans-2-Chloro-5-(2,2-dichloro-3-(3,4-dichlorophenyl)cyclopropane-1-carboxamido)-N-(2-(2,2-difluoroacetamido)-4-fluorophenyl)benzamide] yielded a pest or weed control at 50 µg/cm2 [1] of 50 to 100% and a pest or weed control at 50 µg/cm2 [2] of 50 to 100%.
With CC(=O)Nc1c(F)cc(NC(=O)c2cc(NC(=O)[C@H]3[C@H](c4ccc(Cl)c(Cl)c4)C3(Cl)Cl)ccc2Cl)cc1F (relative stereo) [F1124, trans-N-(4-Acetamido-3,5-difluorophenyl)-2-chloro-5-(2,2-dichloro-3-(3,4-dichlorophenyl)cyclopropane-1-carboxamido)benzamide] the pest or weed control at 50 µg/cm2 [1] was 50 to 100% and the pest or weed control at 50 µg/cm2 [2] was 50 to 100%.
Work on CC(=O)Nc1cc(F)ccc1NC(=O)c1cc(NC(=O)[C@H]2[C@H](c3ccc(Cl)c(Cl)c3)C2(Cl)Cl)ccc1Cl (relative stereo) [F1125, trans-N-(2-Acetamido-4-fluorophenyl)-2-chloro-5-(2,2-dichloro-3-(3,4-dichlorophenyl)cyclopropane-1-carboxamido)benzamide] yielded a pest or weed control at 50 µg/cm2 [1] of 50 to 100% and a pest or weed control at 50 µg/cm2 [2] of 50 to 100%.

Reference: patent US20250228239A1, “MOLECULES HAVING PESTICIDAL UTILITY, AND INTERMEDIATES, COMPOSITIONS, AND PROCESSES, RELATED THERETO” (priority 2024, published 2025)
